# Test results taken from US3959468A, “Antibiotic equisetin and method of production” (The United States of America as represented by the …, priority 1974, dated 1976).
# Like-named read-outs stand apart in the source and are kept apart here.
# What was measured:
# Mycobacterium phlei = test: Minimum inhibitory concentration, agar streak test on TGY agar (M. phlei); type: cell-based; details: Mycolicibacterium phlei
# Method: (§1) Minimum inhibitory concentrations for microorganisms. The F. equiseti NRRL 5537 antibiotic was diluted in ethanol. Streptomycin sulfate and isoniazid were diluted in water. Amounts up to 1 ml. were added to TGY agar to provide the desired double dilution test concentrations. Minimum inhibitory concentrations of the antimicrobial agents were determined by streaking a loopful of standardized suspensions of 24- to 48-hr. cultures of selected microorganisms onto the surface of 20 ml. of the modified TGY agar in a standard petri dish. Microorganisms were cultured on TGY agar slants and diluted with TGY broth to yield a transmittance of about 90% at 600 nm. in a Spectronic-20 spectrophotometer. All cultures grew on control plates containing 1 ml. ethanol per 100 ml. TGY agar. Bacteria were incubated at 37° C. and the fungi at room temperature.
# M. smegmatis = test: Minimum inhibitory concentration, agar streak test on TGY agar (M. smegmatis); type: cell-based; details: Mycolicibacterium smegmatis, NRRLB612, NRRL B-612, 37° C., 24 and 48 hr., read-out: Antimicrobial agent MIC
# Method: as §1
# M. rhodochrus = test: Minimum inhibitory concentration, agar streak test on TGY agar (M. rhodochrus); type: cell-based; details: NRRL B-2141, 37° C., 24 and 48 hr., read-out: Antimicrobial agent MIC
# Method: as §1
# Bacillus subtilis = test: Minimum inhibitory concentration, agar streak test on TGY agar (B. subtilis); type: cell-based
# Method: as §1
# Staphylococcus aureus = test: Minimum inhibitory concentration, agar streak test on TGY agar (S. aureus); type: cell-based
# Method: as §1
# Neisseria perflava = test: Minimum inhibitory concentration, agar streak test on TGY agar (N. perflava); type: cell-based
# Method: as §1
# bacteria = details: cited from earlier work
# gram-negative bacteria = test: Minimum inhibitory concentration, agar streak test on TGY agar (other gram-negative bacteria); type: cell-based; details: Neisseria perflava; tested gram-negative bacteria other than N. perflava; read-out: no inhibition at levels up to
# Method: as §1
# fungi = test: Minimum inhibitory concentration, agar streak test on TGY agar (fungi); type: cell-based; details: tested fungi; room temperature; read-out: no inhibition at levels up to
# Method: as §1
# [1] = test system: some gram-positive bacteria and N. perflava; test: Comparison of MIC of equisetin with streptomycin and isoniazid; type: cell-based; details: in vitro, tested bacteria
# Method: as §1
# physchem = type: physicochemical
# Method: Melting points (uncorrected) were determined with a Fisher-Johns apparatus. Infrared spectra were obtained on a Beckman Model 1R-8 spectrophotometer from films deposited on KRS-5 plates (Wilks, Inc.) or from solutions in a 1-mm. sodium chloride cell. Mass spectra were obtained on a Nuclide high-resolution instrument Model 12-90G. Ultraviolet spectra were recorded from a Beckman DG-G with the absolute ethanol solutions of antibiotic at 25 μg./ml. Elemental analysis was carried out in a Perkin-Elmer CHN analyzer 240. Solubilities were measured by the procedure of Shriner et al. [The Systematic Identification of Organic Compounds. A Laboratory Manual, John Wiley and Sons., Inc., New York].
# [2] = type: physicochemical; details: for degradation peak, share of the sample: short columns (2 ft.)
# Method: Gas-liquid chromatography of F. equiseti NRRL 5537 preparations was carried out on a Bendix Model 2500 chromatograph equipped with on-column flame ionization detectors. Retention times of the antibiotic and its degradation product were determined on glass columns (2 ft. × 2 mm. and 6 ft. × 2 mm.) packed with SE-30 (3%) on Supelcon AW-DMCS (Supelco, Inc.). Operating parameters were: temperature, 180° or 190° C. isothermally for 2-ft. columns and programmed from 180° to 220° C. at 5° C./min. for 6-ft. columns; carrier gas, nitrogen (40 ml./min.); hydrogen (20 ml./min.); air (400 ml./min.); injection ports and detectors, 250° C. Samples were dissolved in absolute ethanol (10 mg./ml.), and 2 μl. were used for analyses. Peak areas and retention times were obtained with a Hewlett/Packard Model 3370 B integrator.
# in vivo = test: in vivo; design: species or system Swiss-Webster female mice; details: mouse, in vivo, ip; intraperitoneal, propylene glycol, 25 g. Swiss-Webster female mice; read-out: intraperitoneal LD50 dose
# Method: (§2) Animal toxicity. Chromatographically pure antibiotic was dissolved in warm propylene glycol and injected intraperitoneally into 25 g. Swiss-Webster female mice. The LD50 dose was calculated by Weil's procedure (supra) with the following notation: K = 3; n = 6; r = 0, 1, 6, 6; d = 0.3010; and Da = 25 mg./kg. body weight.
# mice = test: in vivo; design: species or system Swiss-Webster female mice; details: for r (Weil's procedure notation): n = 6, Da = 25 mg./kg.
# Method: as §2
# [3] = NRRLB609, NRRL B-609, TGY agar, 37° C., 24 and 48 hr., read-out: Antimicrobial agent MIC
# [4] = NRRLB610, NRRL B-610, TGY agar, 37° C., 24 and 48 hr., read-out: Antimicrobial agent MIC
# [5] = NRRLB4051, NRRL B-4051, TGY agar, 37° C., 24 and 48 hr., read-out: Antimicrobial agent MIC
# [6] = NRRLB543, NRRL B-543, TGY agar, 37° C., 24 and 48 hr., read-out: Antimicrobial agent MIC
# [7] = NRRLB558, NRRL B-558, TGY agar, 37° C., 24 and 48 hr., read-out: Antimicrobial agent MIC
# [8] = NRRLB644, NRRL B-644, TGY agar, 37° C., 24 and 48 hr., read-out: Antimicrobial agent MIC
# [9] = NRRLB765, NRRL B-765, TGY agar, 37° C., 24 and 48 hr., read-out: Antimicrobial agent MIC
# [10] = NRRLB972, NRRL B-972, TGY agar, 37° C., 24 and 48 hr., read-out: Antimicrobial agent MIC
# [11] = NRRLB1650, NRRL B-1650, TGY agar, 37° C., 24 and 48 hr., read-out: Antimicrobial agent MIC
# [12] = NRRLB3284, NRRL B-3284, TGY agar, 37° C., 24 and 48 hr., read-out: Antimicrobial agent MIC
# [13] = NRRLB120, NRRL B-120, TGY agar, 37° C., 24 and 48 hr., read-out: Antimicrobial agent MIC
# [14] = NRRLB124, NRRL B-124, TGY agar, 37° C., 24 and 48 hr., read-out: Antimicrobial agent MIC
# [15] = NRRLB313, NRRL B-313, TGY agar, 37° C., 24 and 48 hr., read-out: Antimicrobial agent MIC
# [16] = NRRLB678, NRRL B-678, TGY agar, 37° C., 24 and 48 hr., read-out: Antimicrobial agent MIC
# [17] = NRRLB1317, NRRL B-1317, TGY agar, 37° C., 24 and 48 hr., read-out: Antimicrobial agent MIC
# [18] = NRRLB1318, NRRL B-1318, TGY agar, 37° C., 24 and 48 hr., read-out: Antimicrobial agent MIC
# [19] = NRRLB2746, NRRL B-2746, TGY agar, 37° C., 24 and 48 hr., read-out: Antimicrobial agent MIC
# [20] = NRRLB1458, NRRL B-1458, TGY agar, 37° C., 24 and 48 hr., read-out: Antimicrobial agent MIC
# [21] = NRRLB1788, NRRL B-1788, TGY agar, 37° C., 24 and 48 hr., read-out: Antimicrobial agent MIC
# [22] = NRRLB1789, NRRL B-1789, TGY agar, 37° C., 24 and 48 hr., read-out: Antimicrobial agent MIC
# [23] = NRRLB1790, NRRL B-1790, TGY agar, 37° C., 24 and 48 hr., read-out: Antimicrobial agent MIC
# [24] = NRRLB1791, NRRL B-1791, TGY agar, 37° C., 24 and 48 hr., read-out: Antimicrobial agent MIC
# [25] = seven strains, read-out: concentration at which strains were inhibited
# [26] = 100 or 200 mg./kg. intraperitoneal
compound,measurement,setting,value
NNC(=O)c1ccncc1 [Isoniazid],MIC,Mycobacterium phlei; [3],4 µg/mL
same,MIC,Mycobacterium phlei; [4],4 µg/mL
same,MIC,Mycobacterium phlei; [5],4 µg/mL
same,MIC,M. smegmatis,4 µg/mL
same,MIC,M. rhodochrus,64 µg/mL
same,MIC,"Bacillus subtilis; B. subtilis strains, Table 1 footnote 1 (explains the dashes), read-out: not inhibited by (isoniazid per ml. medium)",> 128 µg/mL
same,MIC,Bacillus subtilis; [6],128 µg/mL
same,MIC,"Staphylococcus aureus; S. aureus strains, Table 1 footnote 1 (explains the dashes), read-out: not inhibited by (isoniazid per ml. medium)",> 128 µg/mL
same,MIC,"Neisseria perflava; N. perflava strains, Table 1 footnote 1 (explains the dashes), read-out: not inhibited by (isoniazid per ml. medium)",> 128 µg/mL
[H]/N=C(/N)N[C@H]1[C@H](O)[C@@H](O)[C@H](O[C@@H]2O[C@@H](C)[C@](O)(C=O)[C@H]2O[C@@H]2O[C@@H](CO)[C@H](O)[C@@H](O)[C@@H]2NC)[C@@H](N/C(N)=N\[H])[C@@H]1O [Streptomycin],MIC,Mycobacterium phlei; [3],2 µg/mL
same,MIC,Mycobacterium phlei; [4],2 µg/mL
same,MIC,Mycobacterium phlei; [5],2 µg/mL
same,MIC,M. smegmatis,2 µg/mL
same,MIC,M. rhodochrus,2 µg/mL
same,MIC,Bacillus subtilis; [6],4 µg/mL
same,MIC,Bacillus subtilis; [7],8 µg/mL
same,MIC,Bacillus subtilis; [8],2 µg/mL
same,MIC,Bacillus subtilis; [9],2 µg/mL
same,MIC,Bacillus subtilis; [10],8 µg/mL
same,MIC,Bacillus subtilis; [11],8 µg/mL
same,MIC,Bacillus subtilis; [12],4 µg/mL
same,MIC,Staphylococcus aureus; [13],2 µg/mL
same,MIC,Staphylococcus aureus; [14],4 µg/mL
same,MIC,Staphylococcus aureus; [15],2 µg/mL
same,MIC,Staphylococcus aureus; [16],8 µg/mL
same,MIC,Staphylococcus aureus; [17],4 µg/mL
same,MIC,Staphylococcus aureus; [18],8 µg/mL
same,MIC,Staphylococcus aureus; [19],2 µg/mL
same,MIC,Neisseria perflava; [20],2 µg/mL
same,MIC,Neisseria perflava; [21],2 µg/mL
same,MIC,Neisseria perflava; [22],2 µg/mL
same,MIC,Neisseria perflava; [23],2 µg/mL
same,MIC,Neisseria perflava; [24],4 µg/mL
O=C1C=CCO1 [butenolide],antibacterial properties,bacteria,either lack or only exhibit weak antibacterial properties
CC=CC1C=CC2CC(C)CCC2C1(C)C(O)=C1C(=O)C(CO)N(C)C1=O (stereo not drawn) [equisetin],MIC,Mycobacterium phlei; [3],1 µg/mL
same,MIC,Mycobacterium phlei; [4],1 µg/mL
same,MIC,Mycobacterium phlei; [5],2 µg/mL
same,MIC,"Mycobacterium phlei; two of three strains, read-out: concentration at which strains were inhibited",≤ 1 µg/mL
same,MIC,M. smegmatis,8 µg/mL
same,MIC,M. rhodochrus,0.5 µg/mL
same,MIC,Bacillus subtilis; [6],0.5 µg/mL
same,MIC,Bacillus subtilis; [7],0.5 µg/mL
same,MIC,Bacillus subtilis; [8],0.5 µg/mL
same,MIC,Bacillus subtilis; [9],0.5 µg/mL
same,MIC,Bacillus subtilis; [10],0.5 µg/mL
same,MIC,Bacillus subtilis; [11],1 µg/mL
same,MIC,Bacillus subtilis; [12],1 µg/mL
same,MIC,Bacillus subtilis; [25],≤ 1 µg/mL
same,MIC,Staphylococcus aureus; [13],1 µg/mL
same,MIC,Staphylococcus aureus; [14],1 µg/mL
same,MIC,Staphylococcus aureus; [15],0.5 µg/mL
same,MIC,Staphylococcus aureus; [16],1 µg/mL
same,MIC,Staphylococcus aureus; [17],1 µg/mL
same,MIC,Staphylococcus aureus; [18],1 µg/mL
same,MIC,Staphylococcus aureus; [19],1 µg/mL
same,MIC,Staphylococcus aureus; [25],≤ 1 µg/mL
same,MIC,Neisseria perflava; [20],2 µg/mL
same,MIC,Neisseria perflava; [21],2 µg/mL
same,MIC,Neisseria perflava; [22],4 µg/mL
same,MIC,Neisseria perflava; [23],1 µg/mL
same,MIC,Neisseria perflava; [24],4 µg/mL
same,MIC,gram-negative bacteria,> 128 µg/mL
same,MIC,fungi,> 128 µg/mL
same,comparison of minimum inhibitory concentrations with streptomycin and isoniazid,[1],a lower concentration of equisetin were required for the in vitro inhibition of the tested bacteria than was required for inhibition by streptomycin or isoniazid
same,solubility,"physchem; acetone, organic solvent or mixture, read-out: solubility in acetone",> 660 mg/mL
same,solubility,"physchem; ethanol, organic solvent or mixture, read-out: solubility in ethanol",> 330 mg/mL
same,solubility,"physchem; methanol, organic solvent or mixture, read-out: solubility in methanol",> 220 mg/mL
same,solubility,"physchem; organic solvent or mixture, hexane, insoluble, read-out: solubility in hexane",< 0.8 mg/mL
same,solubility,"physchem; water, insoluble, read-out: solubility in water",< 0.3 mg/mL
same,antibiotic converted to the degradation product,"[2]; 6-ft. columns, 220° C.",almost half
same,"degradation peak, share of the sample",[2]; 180° C.,3%
same,"degradation peak, share of the sample",[2]; 190° C.,6-8%
same,LD50,in vivo,63 mg/kg
same,visible ill effects in surviving mice,"mice; 25- or 50-mg./kg. doses intraperitoneal, 4 wk. of observation",no visible ill effects
same,condition of mice,mice; [26],lethargic
same,"mortalities continued for, post-injection",mice; [26],4 da.
same,time of death,mice; [26],death did not occur before the second day after treatment
same,r (Weil's procedure notation),"mice; first r, d = 0.3010 (25 mg./kg.)",0
same,r (Weil's procedure notation),"mice; fourth r, d = 0.3010 (200 mg./kg.)",6
same,lethal action,"mice; intraperitoneal, mice",Lethal action was slow
same,r (Weil's procedure notation),"mice; second r, d = 0.3010 (50 mg./kg.)",1
same,r (Weil's procedure notation),"mice; third r, d = 0.3010 (100 mg./kg.)",6
C[C@H]1CCCC(=O)CCC/C=C/c2cc(O)cc(O)c2C(=O)O1 [zearalenone],antibacterial properties,bacteria,either lack or only exhibit weak antibacterial properties
fusariogenin,antibacterial properties,bacteria,either lack or only exhibit weak antibacterial properties
